Measured values from US20230141600A1, “IMIDAZOPYRAZINE DERIVATIVES” (priority 2020, published 2023).
Structures can show the parent of a compound that is named as a salt.

tested on: Acinetobacter baumannii ATCC17961; assay: 90% growth inhibitory concentration (IC90) determination, antimicrobial susceptibility testing; format: cell-based; conditions: 90% growth inhibition, Iso-Sensitest broth, OD 600 nm over 16 h, 35±2° C.; read-out: ATCC 17961 IC90
Procedure: Antimicrobial Susceptibility Testing:
90% Growth Inhibitory Concentration (IC90) Determination
The in vitro antimicrobial activity of the compounds was determined according to the following procedure:
The assay used a 10-points Iso-Sensitest broth medium to measure quantitatively the in vitro activity of the compounds against Acinetobacter baumannii ATCC17961 and ATCC17978.
Stock compounds in DMSO were serially twofold diluted (e.g. range from 50 to 0.097 μM final concentration) in 384 wells microtiter plates and inoculated with 49 μl the bacterial suspension in Iso-Sensitest medium to have a final cell concentration of ˜5×10^(5) CFU/ml in a final volume/well of 50 ul/well. Microtiter plates were incubated at 35±2° C.
Bacterial cell growth was determined with the measurement of optical density at λ=600 nm each minutes over a time course of 16 h. Growth inhibition was calculated during the logarithmic growth of the bacterial cells with determination of the concentration inhibiting 50% (IC50) and 90% (IC90) of the growth.
Table 2 provides the 90% growth inhibitory concentrations (IC90) in micromoles per liter of the compounds of present invention obtained against the strain Acinetobacter baumannii ATCC17961.

| SMILES | IC90 [nM] |
| --- | --- |
| CCc1cc(Nc2nccn3c(-c4ccc(OC)c(F)c4F)cnc23)ccc1C(=O)NCC[C@H](NC(=O)C1CC[N+](C)(CC2CNC2)CC1)C(=O)OC (mixture of isomers) [Example 121, Methyl (2S)-2-[[1-(azetidin-3-ylmethyl)-1-methyl-piperidin-1-ium-4-carbonyl]amino]-4-[[4-[[3-(2,3-difluoro-4-methoxy-phenyl)imidazo[1,2-a]pyrazin-8-yl]amino]-2-ethyl-benzoyl]amino]butanoate formate 2,2,2-trifluoroacetate (Mixed Salt)] | 854 |
| CCc1cc(Nc2nccn3c(-c4ccc(OC)c(F)c4F)cnc23)ccc1C(=O)NCC[C@H](NC(=O)C1CC[N+](C)(CC2CNC2)CC1)C(=O)OC (mixture of isomers) [Example 123, Methyl (2S)-2-[[1-(azetidin-3-ylmethyl)-1-methyl-piperidin-1-ium-4-carbonyl]amino]-4-[[4-[[3-(2,3-difluoro-4-methoxy-phenyl)imidazo[1,2-a]pyrazin-8-yl]amino]-2-ethyl-benzoyl]amino]butanoate formate 2,2,2-trifluoroacetate (Mixed Salt)] | 5000 |

same assay, conditions: Acinetobacter baumannii, ATCC17961, 16 h, 90% growth inhibition, Iso-Sensitest broth, OD 600 nm over 16 h, 35±2° C.; read-out: ATCC 17961 IC90

| SMILES | IC90 [nM] |
| --- | --- |
| CCc1cc(Nc2nccn3c(-c4ccc(OC)c(F)c4F)cnc23)ccc1C(=O)NC[C@H](NC(=O)C1CC[N+](C)(CC2CNC2)CC1)C(=O)OC (mixture of isomers) [Example 120, Methyl (2S)-2-[[1-(azetidin-3-ylmethyl)-1-methyl-piperidin-1-ium-4-carbonyl]amino]-3-[[4-[[3-(2,3-difluoro-4-methoxy-phenyl)imidazo[1,2-a]pyrazin-8-yl]amino]-2-ethyl-benzoyl]amino]propanoate formate 2,2,2-trifluoroacetate (Mixed Salt)] | 682 |
| CCc1cc(Nc2nccn3c(-c4ccc(OC)c(F)c4F)cnc23)ccc1C(=O)N[C@@H](CNC(=O)C1CC[N+](C)(CC2CNC2)CC1)C(=O)OC (mixture of isomers) [Example 122, Methyl (2S)-3-[[1-(azetidin-3-ylmethyl)-1-methyl-piperidin-1-ium-4-carbonyl]amino]-2-[[4-[[3-(2,3-difluoro-4-methoxy-phenyl)imidazo[1,2-a]pyrazin-8-yl]amino]-2-ethyl-benzoyl]amino]propanoate formate 2,2,2-trifluoroacetate (Mixed Salt)] | 1110 |
| CCc1cc(Nc2nccn3c(-c4ccc(OC)c(F)c4F)cnc23)ccc1C(=O)N[C@H]1[C@@H]2C[N+](C)(CC3CNC3)C[C@@H]21 (mixture of isomers) [Example 137, 4-[[3-(2,3-Difluoro-4-methoxy-phenyl)imidazo[1,2-a]pyrazin-8-yl]amino]-2-ethyl-N-[rac-(1S,5R)-3-(azetidin-3-ylmethyl)-3-methyl-3-azoniabicyclo[3.1.0]hexan-6-yl]benzamide bis(2,2,2-trifluoroacetate)] | 1220 |
| CCc1cc(Nc2nccn3c(-c4ccc(Oc5ncccn5)c(F)c4F)cnc23)ccc1C(=O)NCCCNC(=O)C1CC[N+](C)(CC2CCNC2)CC1 (centres unmarked) [Example 3, N-[3-[[4-[[3-(2,3-difluoro-4-pyrimidin-2-yloxy-phenyl)imidazo[1,2-a]pyrazin-8-yl]amino]-2-ethyl-benzoyl]amino]propyl]-1-methyl-1-(pyrrolidin-3-ylmethyl)piperidin-1-ium-4-carboxamide Formate] | 484 |
| CCc1cc(Nc2nccn3c(-c4cn(CC#N)nc4C(F)(F)F)cnc23)ccc1C(=O)NCCOCC[N+]1(CC#N)CCCC1 [Example 4, 1-(Cyanomethyl)-1-(2-(2-(4-((3-(1-(cyanomethyl)-3-(trifluoromethyl)-1H-pyrazol-4-yl)imidazo[1,2-a]pyrazin-8-yl)amino)-2-ethylbenzamido)ethoxy)ethyl)pyrrolidin-1-ium Formate] | 267 |
| C[N+](C)(C)CC(=O)NCCCNC(=O)c1ccc(Nc2nccn3c(-c4c[nH]nc4C(F)(F)F)cnc23)cc1Cl [Example 7, [2-[3-[[2-Chloro-4-[[3-[3-(trifluoromethyl)-1H-pyrazol-4-yl]imidazo[1,2-a]pyrazin-8-yl]amino]benzoyl]amino]propylamino]-2-oxo-ethyl]-trimethyl-ammonium Formate] | 1160 |
| CCc1cc(Nc2nccn3c(-c4cn(CC(F)F)nc4C(F)(F)F)cnc23)ccc1C(=O)NCCCCC[N+](C)(CC(=O)O)CC1CNC1 (centres unmarked) [Example 8, azetidin-3-ylmethyl-(carboxymethyl)-[5-[[4-[[3-[1-(2,2-difluoroethyl)-3-(trifluoromethyl)pyrazol-4-yl]imidazo[1,2-a]pyrazin-8-yl]amino]-2-ethyl-benzoyl]amino]pentyl]-methyl-ammonium Formate] | 600 |
| CCc1cc(Nc2nccn3c(-c4ccc(OC(F)F)c(F)c4F)cnc23)ccc1C(=O)N1CCN(C(=O)C2CC[N+](C)(CC(N)=O)CC2)CC1 (centres unmarked) [Example 9, 1-(2-amino-2-oxoethyl)-4-(4-(4-((3-(4-(difluoromethoxy)-2,3-difluorophenyl)imidazo[1,2-a]pyrazin-8-yl)amino)-2-ethylbenzoyl)piperazine-1-carbonyl)-1-methylpiperidin-1-ium Formate] | 63.5 |
| CCc1cc(Nc2nccn3c(-c4ccc(OC(F)F)c(F)c4F)cnc23)ccc1C(=O)NCCC1CC[N+](C)(CC2CNC2)CC1 (centres unmarked) [Example 10, N-[2-[1-(azetidin-3-ylmethyl)-1-methyl-piperidin-1-ium-4-yl]ethyl]-4-[[3-[4-(difluoromethoxy)-2,3-difluoro-phenyl]imidazo[1,2-a]pyrazin-8-yl]amino]-2-ethyl-benzamide Diformate] | 157 |
| CCc1cc(Nc2nccn3c(-c4ccc(OC)c(F)c4F)cnc23)ccc1C(=O)NCCCCC[N+](C)(CCCCCN)CC(=O)O (centres unmarked) [Example 11, 5-Aminopentyl-(carboxymethyl)-[5-[[4-[[3-(2,3-difluoro-4-methoxy-phenyl)imidazo[1,2-a]pyrazin-8-yl]amino]-2-ethyl-benzoyl]amino]pentyl]-methyl-ammonium 2,2,2-trifluoroacetate] | 131 |
| COc1ccc(-c2cnc3c(Nc4ccc(C(=O)N5CCN(C(=O)C[N+](C)(C)C)CC5)c(Cl)c4)nccn23)c(F)c1F [Example 12, 2-(4-(2-Chloro-4-((3-(2,3-difluoro-4-methoxyphenyl)imidazo[1,2-a]pyrazin-8-yl)amino)benzoyl)piperazin-1-yl)-N,N,N-trimethyl-2-oxoethan-1-aminium Iodide] | 44.7 |
| COc1ccc(-c2cnc3c(Nc4cc(C)c(C(=O)NCCOCC[N+](C)(C)C)c(F)c4)nccn23)c(F)c1F [Example 18, 2-(2-(4-((3-(2,3-Difluoro-4-methoxyphenyl)imidazo[1,2-a]pyrazin-8-yl)amino)-2-fluoro-6-methylbenzamido)ethoxy)-N,N,N-trimethylethan-1-aminium Hydrogen Carbonate] | 336 |
| COc1ccc(-c2cnc3c(Nc4ccc(C(=O)N5CCN(C(=O)[C@@H]6C[C@@H](O)C[N+]6(C)C)CC5)c(C)c4)nccn23)c(F)c1F [Example 55, (2S,4R)-2-(4-(4-((3-(2,3-Difluoro-4-methoxyphenyl)imidazo[1,2-a]pyrazin-8-yl)amino)-2-methylbenzoyl)piperazine-1-carbonyl)-4-hydroxy-1,1-dimethylpyrrolidin-1-ium Formate] | 132 |
| Cc1cc(Nc2nccn3c(-c4ccc(OCC#N)c(F)c4F)cnc23)ccc1C(=O)N1CCN(C(=O)C[N+](C)(C)C)CC1 [Example 56, [2-[4-[4-[[3-[4-(Cyanomethoxy)-2,3-difluorophenyl]imidazo[1,2-a]pyrazin-8-yl]amino]-2-methylbenzoyl]piperazin-1-yl]-2-oxoethyl]-trimethylazanium Iodide] | 59.6 |
| Cc1cc(Nc2nccn3c(-c4ccc(OC(F)F)cc4)cnc23)ccc1C(=O)N(C)CCC1CC[N+](C)(CCCC(=O)O)CC1 (centres unmarked) [Example 57, 4-[4-[2-[[4-[[3-[4-(Difluoromethoxy)phenyl]imidazo[1,2-a]pyrazin-8-yl]amino]-2-methylbenzoyl]-methylamino]ethyl]-1-methylpiperidin-1-ium-1-yl]butanoic acid Hydrochloride] | 2180 |
| C[N+](C)(C)CC(=O)NCCNC(=O)c1ccc(Nc2nccn3c(-c4c[nH]nc4C(F)(F)F)cnc23)cc1Cl [Example 58, [2-[2-[[2-Chloro-4-[[3-[3-(trifluoromethyl)-1H-pyrazol-4-yl]imidazo[1,2-a]pyrazin-8-yl]amino]benzoyl]amino]ethylamino]-2-oxo-ethyl]-trimethyl-ammonium formate] | 1580 |
| COc1ccc(-c2cnc3c(Nc4ccc(C(=O)N[C@H]5C[C@@H](NC(=O)C[N+](C)(C)C)C5)c(Cl)c4)nccn23)c(F)c1F [Example 59, [2-[[3-[[2-Chloro-4-[[3-(2,3-difluoro-4-methoxy-phenyl)imidazo[1,2-a]pyrazin-8-yl]amino]benzoyl]amino]cyclobutyl]amino]-2-oxo-ethyl]-trimethyl-ammonium formate] | 41 |
| COc1ccc(-c2cnc3c(Nc4ccc(C(=O)NC5CCN(C(=O)C[N+](C)(C)C)CC5)c(C)c4)nccn23)c(F)c1F [Example 60, 2-(4-(4-((3-(2,3-Difluoro-4-methoxyphenyl)imidazo[1,2-a]pyrazin-8-yl)amino)-2-methylbenzamido)piperidin-1-yl)-N,N,N-trimethyl-2-oxoethan-1-aminium Chloride] | 166 |
